How the values were obtained:
[1] = molecular target: T1, D3 dopamine receptors (Rattus norvegicus, UniProt P19020); assay: [3H]R(+)-7-OH-DPAT binding assay, rat ventral striatum membranes; settings: rat brain; for Ki: mean ± SEM of 3-6 determinations; for Selectivity D1-like/D3 / Selectivity D2-like/D3: ratio of Ki values
T1 construct: Rat ventral striatum (nucleus accumbens and olfactory tubercles) was prepared in assay buffer; tissue Pel-Freez, Rogers, Ark; host or cells: rat ventral striatum (nucleus accumbens and olfactory tubercles) membranes
Protocol: All the synthesized compounds were determined for the binding affinities at the D3, D1-like and D2-like receptors in membranes prepared from the brains of adult, male Sprague-Dawley rats (Pel-Freez, Rogers, Ark.). All compounds were dissolved in 100% EtOH at a concentration of 5 mM.
[^3H]R(+)-7-OH-DPAT Binding Assays.
[^3H]R-(+)-7-OH-DPAT binding assays for the D3 dopamine receptors were performed as previously described in detail.^(44),(45) Rat ventral striatum (nucleus accumbens and olfactory tubercles) was prepared in assay buffer (50 mM Tris, 1 mM EDTA; pH 7.4 at 23° C.) to yield a final concentration of 10 mg original wet weight (o.w.w.)/ml. […] Nonspecific binding was defined by 1 μM spiperone. Assay tubes were incubated at 23° C. for 90 min. The reaction was terminated by rapid vacuum filtration.

[2] = molecular target: T2, D2 receptor (Rattus norvegicus, UniProt P61169); assay: Hypothermia assay (core body temperature) in rats; type: in vivo; settings: 10.0 mg/kg s.c.
T2 construct: evaluated for the effect in the induction of yawning and hypothermia in rats; tissue Harlan; Indianapolis, Ind; host or cells: living male Sprague-Dawley rats
Protocol: (§1) Male Sprague-Dawley rats (Harlan; Indianapolis, Ind.) weighing 250-300 g were housed three to a cage for yawning studies, and one to a cage for hypothermia studies, and maintained on a 12-h dark/light cycle with lights on at 7:00 AM in a temperature (21-23° C.) and humidity controlled environment with free access to standard Purina rodent chow and water. […] All drugs were administered subcutaneously (s.c.) in a volume of 1 ml/kg.
Rats were anesthetized with ketamine/xylazine (100/10 mg/kg; i.p.) and their abdominal area was shaved and cleaned with alternating betadine and alcohol swabs prior to surgical implantation of radio-telemetric probes (E-4000 E-Mitter, Mini-Mitter, Bend, Oreg., USA). […]
On the day of testing, rats were weighed and returned to their home cages, which were placed onto a receiving pad (ER-4000 Receiver, Mini-mitter, Bend, Oreg.) to allow for the collection of core body temperature. Temperature measurements were taken every min with at least 30 min of baseline temperature data recorded prior to the administration of antagonist or vehicle. Agonist or vehicle injections were administered 30 min thereafter, and core body temperature was recorded for a period of at least the next 60 min. […]

[3] = molecular target: T2, D2 receptor; assay: Effect on pramipexole-induced hypothermia in rats; type: in vivo; settings: pretreatment 10.0 mg/kg; pramipexole 1.0 mg/kg
Protocol: as §1
(§2) Observation of yawning behavior began immediately after each injection, and the total number of yawns was recorded for 60 min thereafter.
(§3) Dose-response curves for the induction of yawning and hypothermia were determined with 6 rats per group, and results expressed as the mean number of yawns, or change in body temperature 60 min post agonist injection compared to the body temperature 1 min prior to the agonist injection±standard error of the mean (SEM).

[4] = Solubility in water; type: physicochemical
[5] = molecular target: T3, D3 receptor (Rattus norvegicus, UniProt P19020); assay: Induction of yawning behavior in rats; type: in vivo; settings: for Emax: rat, read-out: Increase in yawning relative to maximum effect of pramipexole at 0.1 mg/kg, doses between 0.0032 and 3.2 mg/kg; for Emax / Lowest dose active (significant increase in yawning): rats; for Lowest dose active (significant increase in yawning): s.c., yawns/60 min; for In vivo functional activity at the D3 receptor: yawning assays in rats
T3 construct: evaluated for the effect in the induction of yawning and hypothermia in rats; tissue Harlan; Indianapolis, Ind; host or cells: living male Sprague-Dawley rats
Protocol: as §1
Yawning behavior was defined as a prolonged (˜1 sec.), wide opening of the mouth followed by a rapid closure. On the day of testing, rats were transferred from their home cage to a test chamber (48 cm×23 cm×20 cm clear rodent cage with standard cob bedding), and allowed to habituate to the chamber for a period of 30 min prior to a sterile water injection which was administered 30 min prior to the injection of the compound of interest. Yawns were scored for a period of 60 min thereafter. Each compound was assessed in groups of 6 rats, with each rat receiving a single dose of one compound. Food and water were unavailable during test sessions, and all experiments were conducted between the hours of 12:00 PM and 6:00 PM with at least 72 hrs between test sessions to allow for drug washout.
as §3

[6] = tested on: D3 and D2 receptors; assay: Effect on pramipexole-induced yawning in rats; type: in vivo, rat; settings: 30-min pretreatment; 38/52 […], SB-277011A 32 mg/kg, L-741,626 1.0 mg/kg
Protocol: as §1, §2, §3

T1 sequence (P19020 whole entry): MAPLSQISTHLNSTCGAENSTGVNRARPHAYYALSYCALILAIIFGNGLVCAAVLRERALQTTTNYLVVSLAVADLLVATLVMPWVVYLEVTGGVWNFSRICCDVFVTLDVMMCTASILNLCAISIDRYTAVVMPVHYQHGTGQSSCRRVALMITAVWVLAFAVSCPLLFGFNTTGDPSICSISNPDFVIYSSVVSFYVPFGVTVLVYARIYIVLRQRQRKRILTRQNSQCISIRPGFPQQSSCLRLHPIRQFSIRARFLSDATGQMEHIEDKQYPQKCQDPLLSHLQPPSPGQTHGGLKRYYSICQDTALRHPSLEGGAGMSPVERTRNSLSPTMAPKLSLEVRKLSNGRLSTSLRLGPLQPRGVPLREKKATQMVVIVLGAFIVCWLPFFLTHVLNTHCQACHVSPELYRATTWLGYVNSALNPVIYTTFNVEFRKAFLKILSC
T3 sequence (P19020 whole entry): as above
T2 sequence (P61169 whole entry): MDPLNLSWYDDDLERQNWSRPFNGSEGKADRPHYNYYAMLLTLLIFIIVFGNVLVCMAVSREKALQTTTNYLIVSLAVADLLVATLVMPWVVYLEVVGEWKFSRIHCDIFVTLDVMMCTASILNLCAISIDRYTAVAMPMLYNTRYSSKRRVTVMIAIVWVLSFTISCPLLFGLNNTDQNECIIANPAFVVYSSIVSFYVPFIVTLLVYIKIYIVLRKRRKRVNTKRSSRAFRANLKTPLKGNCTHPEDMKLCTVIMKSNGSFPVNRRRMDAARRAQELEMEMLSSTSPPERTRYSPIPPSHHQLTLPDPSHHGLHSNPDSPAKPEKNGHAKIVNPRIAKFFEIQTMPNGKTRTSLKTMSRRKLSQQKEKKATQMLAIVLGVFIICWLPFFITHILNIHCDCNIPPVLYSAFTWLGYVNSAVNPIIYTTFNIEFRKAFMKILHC

| Compound | Ki [1] [nM] | Selectivity D1-like/D3 [1] | Selectivity D2-like/D3 [1] | further results |
| --- | --- | --- | --- | --- |
| CCCN(CCC1CCC(NC(=O)c2ccc(-c3noc(C(C)C)n3)cc2)CC1)C1CCc2nc(N)sc2C1 (single isomer, unassigned) [Compound 35] | 2 ± 0.19 | 5,366 | – | – |
| CCCN(CCC1CCC(NC(=O)c2ccc(-c3noc(C4CC4)n3)cc2)CC1)C1CCc2nc(N)sc2C1 (single isomer, unassigned) [Compound 36] | 3.5 ± 0.57 | 3,245 | – | – |
| CCCN(CCC1CCC(NC(=O)c2cccc(-c3noc(CC)n3)c2)CC1)C1CCc2nc(N)sc2C1 (single isomer, unassigned) [Compound 37] | 1.5 | 3,448 | 339 | – |
| CCCN(CCC1CCC(NC(=O)c2ccc(-c3noc(CC)n3)cc2)CC1)C1CCc2nc(N)sc2C1 (stereo in doubt) [Compound 34, Trans-N-(4-2-(((s)-2-amino-4,5,6,7-tetrahydrobenzo[d]thiazol-6-yl)(propyl)amino)ethylcyclohexyl)-4-(5-ethyl-1,2,4-oxadiazol-3-yl)benzamide] | 2.1 ± 0.15 | 8,381 | – | – |
| CCCN(CCC1CCC(NS(=O)(=O)c2ccc(Cl)cc2)CC1)C1CCc2nc(N)sc2C1 (stereo in doubt) [Compound 46, Trans-N-(4-2-(((s)-2-amino-4,5,6,7-tetrahydrobenzo[d]thiazol-6-yl)(propyl)amino)ethylcyclohexyl)-4-chlorobenzenesulfonamide] | 0.95 ± 0.01 | 8,754 | 75 | – |
| OC1(c2ccc(Cl)cc2)CCN(Cc2c[nH]c3ccccc23)CC1 [L-741,626, reference compound] | – | – | – | Effect on yawning at […] pramipexole [6]: reversed the inhibition of yawning; Effect on yawning induced by 0.1 mg/kg pramipexole [6]: failed to alter the induction of yawning |
| N#Cc1ccc2c(c1)CCN(CCC1CCC(NC(=O)c3ccnc4ccccc34)CC1)C2 (stereo not drawn) [SB-277011A, reference compound] | – | – | – | Effect on yawning at […] pramipexole [6]: inhibited the induction of yawning; Effect on yawning induced by 0.1 mg/kg pramipexole [6]: inhibited the induction of yawning |

Second part, led by results:

| Ki [1] [nM] | Selectivity D1-like/D3 [1] | Selectivity D2-like/D3 [1] | Compound | further results |
| --- | --- | --- | --- | --- |
| 1.3 | 27,041 | 345 | CCCN(CCC1CCC(NC(=O)c2ccc(-c3noc(C)n3)cc2)CC1)C1CCc2nc(N)sc2C1 (stereo in doubt) [Compound 33, Trans-N-(4-2-(((s)-2-amino-4,5,6,7-tetrahydrobenzo[d]thiazol-6-yl)(propyl)amino)ethylcyclohexyl)-4-(5-methyl-1,2,4-oxadiazol-3-yl)benzamide] | – |
| 0.73 | – | 494 | CCCN(CCC1CCC(NC(=O)c2cccc(-c3noc(C)n3)c2)CC1)C1CCc2nc(N)sc2C1 (stereo in doubt) [Compound 38, Trans-N-(4-2-(((s)-2-amino-4,5,6,7-tetrahydrobenzo[d]thiazol-6-yl)(propyl)amino)ethylcyclohexyl)-3-(5-methyl-1,2,4-oxadiazol-3-yl)benzamide] | Induction of hypothermia [2]: significant effect in induction of hypothermia; Effect on hypothermic effects of pramipexole [3]: slight, but significant reductions; solubility [4]: > 100 mg/mL; Emax [5]: 25%; Lowest dose active (significant increase in yawning) [5]: 3.2 µg/kg; In vivo functional activity at the D3 receptor [5]: partial agonists at the D3 receptor; Effect on yawning induced by 0.1 mg/kg pramipexole [6]: effectively inhibited |
| 0.72 | – | – | CCCN(CCC1CCC(NS(=O)(=O)c2cccc(F)c2)CC1)C1CCc2nc(N)sc2C1 (stereo in doubt) [Compound 43, Trans-N-(4-2-(((s)-2-amino-4,5,6,7-tetrahydrobenzo[d]thiazol-6-yl)(propyl)amino)ethylcyclohexyl)-3-fluorobenzenesulfonamide] | – |
| 0.78 | 27,487 | 49 | CCCN(CCC1CCC(NS(=O)(=O)c2ccc(OC)cc2)CC1)C1CCc2nc(N)sc2C1 (stereo in doubt) [Compound 44, Trans-N-(4-2-(((s)-2-amino-4,5,6,7-tetrahydrobenzo[d]thiazol-6-yl)(propyl)amino)ethylcyclohexyl)-4-methoxybenzenesulfonamide] | – |
| 1.1 ± 0.1 | – | – | CCCN(CCC1CCC(NS(=O)(=O)c2cccc(Cl)c2)CC1)C1CCc2nc(N)sc2C1 (stereo in doubt) [Compound 45, Trans-N-(4-2-(((s)-2-amino-4,5,6,7-tetrahydrobenzo[d]thiazol-6-yl)(propyl)amino)ethylcyclohexyl)-3-chlorobenzenesulfonamide] | – |
| 0.68 ± 0.06 | – | – | CCCN(CCC1CCC(NS(=O)(=O)c2ccccc2Cl)CC1)C1CCc2nc(N)sc2C1 (stereo in doubt) [Compound 47, Trans-N-(4-2-(((s)-2-amino-4,5,6,7-tetrahydrobenzo[d]thiazol-6-yl)(propyl)amino)ethylcyclohexyl)-2-chlorobenzenesulfonamide] | – |
| 0.63 ± 0.04 | 12,933 | – | CCCN(CCC1CCC(NS(=O)(=O)c2ccc(Cl)nc2)CC1)C1CCc2nc(N)sc2C1 (stereo in doubt) [Compound 51, Trans-N-(4-2-(((s)-2-amino-4,5,6,7-tetrahydrobenzo[d]thiazol-6-yl)(propyl)amino)ethylcyclohexyl)-6-chloropyridine-3-sulfonamide] | – |
| 0.38 | – | 451 | CCCN(CCC1CCC(NS(=O)(=O)c2cccnc2Cl)CC1)C1CCc2nc(N)sc2C1 (stereo in doubt) [Compound 52, Trans-N-(4-2-(((s)-2-amino-4,5,6,7-tetrahydrobenzo[d]thiazol-6-yl)(propyl)amino)ethylcyclohexyl)-2-chloropyridine-3-sulfonamide] | Induction of hypothermia [2]: significant effect in induction of hypothermia; Effect on hypothermic effects of pramipexole [3]: slight, but significant reductions; Emax [5]: 25%; Lowest dose active (significant increase in yawning) [5]: 3.2 µg/kg; In vivo functional activity at the D3 receptor [5]: partial agonists at the D3 receptor; Effect on yawning induced by 0.1 mg/kg pramipexole [6]: effectively inhibited |
| 0.93 | – | – | CCCN(CCC1CCC(NS(=O)(=O)c2cnccc2Cl)CC1)C1CCc2nc(N)sc2C1 (stereo in doubt) [Compound 53, Trans-N-(4-2-(((s)-2-amino-4,5,6,7-tetrahydrobenzo[d]thiazol-6-yl)(propyl)amino)ethylcyclohexyl)-4-chloropyridine-3-sulfonamide] | – |
